Data reported in patent US6972178B1, “Drug screening using a proline-rich nuclear receptor co-regulatory protein/nuclear receptor co-expression system” (City of Hope, priority 1999, dated 2005).

Assays:
Assay in all cases: Yeast two-hybrid assay (HIS3 / β-galactosidase reporter)
[1] = target: T1, AR HBD (Homo sapiens, UniProt P10275); assay type: cell-based; conditions: 100 nM of dihydrotestosterone
T1 construct: fusion proteins of Gal4-DBD and HBDs of AR, GR, PR, TR, RAR, and RXR in pGBT9 vector; expressed in transfected cells; host or cells: yeast Y187 x CG1945 diploids; plasmid a gift of M. R. Stallcup
Protocol: (§1) The protein-protein interactions between the full-length PNRC or PNRC fragments and SF1, ERRα1, and several other nuclear receptors were analyzed by yeast two-hybrid assays. The yeast two-hybrid assay was used to test if PNRC also interacts with other members of the nuclear receptor superfamily. pGBT9-ERRα-1 yeast expression plasmid was prepared by inserting the PCR-amplified ERRA-1 coding region into pGBT9 through an EcoRI site. To construct the plasmid pGBT9-ER274-595, the coding sequence from amino acids 274 to 595 (LBD) of ERα was amplified by PCR with the sense primer 5′-[…]-3′ (SEQ ID NO:1) and antisense primer 5′-[…]-3′ (SEQ ID NO:2) and cloned into the EcoRI/,SalI site of the pGBT9 yeast expression plasmid. pSG5-GRIP1 and several yeast expression plasmids coding for fusion proteins of Gal4-DBD and HBDs of AR, GR, PR, TR, RAR, and RXR in pGBT9 vector were kindly provided by Dr. Michael R. Stallcup (University of Southern California, Los Angeles, Calif.) (Voegel et al., 1996; Hong et al., 1996; Ding et al., 1998). The yeast mating approach was used in yeast two-hybrid assays to study protein-protein interactions as described in Clontech's protocol. Briefly, pGBT9 (DNA-BD vector only), pGBT9/target plasnmids for SF1, ERRα1, and other HBDs of nuclear receptors, and DNA-BD/control plasmids (as negative control) were introduced into the reporter strain Y187, and the AD vector alone or wild type PNRC and its deleted fragments-containing pACT2 derivatives were used to transform yeast strain CG1945. The yeast mating was performed by picking one colony from each type and growing both colonies in liquid YPD medium with or without a proper ligand at the following concentrations: 100 nM of estradiol for ER; 10 μM of deoxycorticosterone for GR; 100 nM of dihydrotestosterone for AR; 500 nM of progesterone for PR; 10 μM of T3 for TR; 10 μM of all-trans-retinoic acid for RAR; and 10 μM of 9-cis-retinoic acid for RXR. The same amount of an aliquot of the mating culture was spread on both SD/-Leu/-Trp plates to select diploid strains bearing both plasmids and SD/-Leu/-Trp/-His/+3-AT plates to score the growth of the diploid cells that express the two interacting target proteins. The His3 positive colonies were further analyzed for β-galactosidase activity by liquid β-galactosidase activity measurement as essentially described in the protocol.
(§2) Yeast strains Y187 expressing the Gal4DB fusion to the nuclear receptors and CG1945expressing Gal4AD alone or Gal4AD-PNRC fusion protein were mated by co-culturing, and selected for the presence of both two-hybrid plasmids. The expression of interacting hybrid proteins in yeast diploids was analyzed to determine if there was induction of HIS3 expression as shown in FIG. 1A and LacZ expression as shown in FIGS. 1B and 1C. […] As shown in FIGS. 1A-C, PNRC also interacted specifically with all seven nuclear receptor HBDs, including ER, AR, GR, TR, PR, RAR and RXR, and these interactions were completely ligand-dependent. […] However, no interactions occurred either between PNRC and an irrelevant protein such as human lamin C protein or between nuclear receptors and Gal4activation domain alone.

[2] = target: T2, ER (ERα LBD, aa 274-595) (Homo sapiens, UniProt P03372); assay type: cell-based; conditions: 100 nM of estradiol
T2 construct: expressed in transfected cells; host or cells: yeast Y187 x CG1945 diploids
Protocol: as §1, §2

[3] = target: T3, ERRα1 (Homo sapiens, UniProt P11474); assay type: cell-based; conditions: no ligand
T3 construct: inserting the PCR-amplified ERRA-1 coding region into pGBT9 through an EcoRI site; expressed in transfected cells; host or cells: yeast Y187 x CG1945 diploids
T3 sequence (P11474 1-423): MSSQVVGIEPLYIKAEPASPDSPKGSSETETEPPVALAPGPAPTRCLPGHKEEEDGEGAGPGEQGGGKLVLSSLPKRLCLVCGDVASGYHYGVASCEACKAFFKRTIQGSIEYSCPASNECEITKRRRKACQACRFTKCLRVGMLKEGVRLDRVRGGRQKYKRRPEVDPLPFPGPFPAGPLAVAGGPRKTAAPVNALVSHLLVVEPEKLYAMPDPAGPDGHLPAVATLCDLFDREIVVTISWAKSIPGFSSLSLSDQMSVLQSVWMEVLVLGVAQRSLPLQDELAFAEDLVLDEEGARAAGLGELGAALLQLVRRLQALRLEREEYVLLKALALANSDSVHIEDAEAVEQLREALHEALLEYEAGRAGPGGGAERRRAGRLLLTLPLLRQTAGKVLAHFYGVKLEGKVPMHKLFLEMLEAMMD
Protocol: as §1, §2

[4] = tested on: GR HBD; assay type: cell-based; conditions: 10 μM of deoxycorticosterone
Protocol: as §1, §2

[5] = tested on: PR HBD; assay type: cell-based; conditions: 500 nM of progesterone
Protocol: as §1, §2

[6] = tested on: RAR HBD; assay type: cell-based; conditions: 10 μM of all-trans-retinoic acid
Protocol: as §1, §2

[7] = tested on: RXR HBD; assay type: cell-based; conditions: 10 μM of 9-cis-retinoic acid
Protocol: as §1, §2

[8] = tested on: TR HBD; assay type: cell-based; conditions: 10 μM of T3
Protocol: as §1, §2

[9] = target: SF1 (Bos taurus, UniProt Q04752); assay type: cell-based, bovine; design: The coding region for the wild type bovine SF1 was first subcloned into a yeast expression vector, pGBT9; expressed in transfected cells; host or cells: yeast (Y187, or Y187 x CG1945 diploids); conditions: no ligand
Protocol: as §1, §2

T1 sequence (P10275 669-900 limits assumed): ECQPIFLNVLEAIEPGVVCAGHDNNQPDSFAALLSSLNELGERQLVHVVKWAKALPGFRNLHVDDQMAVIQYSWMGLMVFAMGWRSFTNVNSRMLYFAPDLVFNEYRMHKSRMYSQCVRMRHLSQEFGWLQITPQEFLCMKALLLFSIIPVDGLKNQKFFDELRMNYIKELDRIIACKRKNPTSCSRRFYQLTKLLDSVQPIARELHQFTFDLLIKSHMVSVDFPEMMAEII
T1 sequence (Q12796 whole entry partner, the tested form may be a part): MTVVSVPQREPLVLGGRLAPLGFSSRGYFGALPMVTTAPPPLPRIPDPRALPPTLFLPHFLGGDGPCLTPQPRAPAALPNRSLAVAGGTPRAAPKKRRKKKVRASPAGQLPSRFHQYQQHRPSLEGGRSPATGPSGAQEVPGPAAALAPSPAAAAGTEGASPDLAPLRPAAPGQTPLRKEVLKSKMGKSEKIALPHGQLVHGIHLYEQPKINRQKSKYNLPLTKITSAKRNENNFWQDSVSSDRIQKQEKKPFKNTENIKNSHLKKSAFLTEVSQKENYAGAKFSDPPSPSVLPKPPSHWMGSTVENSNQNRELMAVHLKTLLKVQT
PR HBD, sequence (P06401 679-933 limits assumed): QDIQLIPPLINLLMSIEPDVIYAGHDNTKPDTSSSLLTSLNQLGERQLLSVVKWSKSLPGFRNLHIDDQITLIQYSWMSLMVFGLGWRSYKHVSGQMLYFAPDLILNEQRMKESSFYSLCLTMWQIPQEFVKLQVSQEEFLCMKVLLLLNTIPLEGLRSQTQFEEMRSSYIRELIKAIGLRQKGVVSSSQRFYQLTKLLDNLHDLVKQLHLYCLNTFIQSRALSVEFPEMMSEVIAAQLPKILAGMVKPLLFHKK
T2 sequence (P03372 274-595): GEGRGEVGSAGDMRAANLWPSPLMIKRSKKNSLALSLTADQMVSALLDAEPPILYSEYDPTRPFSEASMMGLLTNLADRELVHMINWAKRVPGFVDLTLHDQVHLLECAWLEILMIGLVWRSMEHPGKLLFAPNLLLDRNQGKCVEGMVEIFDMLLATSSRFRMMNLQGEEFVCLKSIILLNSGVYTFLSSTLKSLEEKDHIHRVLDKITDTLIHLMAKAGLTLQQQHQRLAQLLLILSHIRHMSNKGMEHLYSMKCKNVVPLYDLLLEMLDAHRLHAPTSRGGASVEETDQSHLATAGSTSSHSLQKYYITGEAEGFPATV
T2 sequence (Q12796 whole entry partner, the tested form may be a part): as the sequence (Q12796 whole entry partner, the tested form may be a part) above
SF1, sequence (Q04752 whole entry): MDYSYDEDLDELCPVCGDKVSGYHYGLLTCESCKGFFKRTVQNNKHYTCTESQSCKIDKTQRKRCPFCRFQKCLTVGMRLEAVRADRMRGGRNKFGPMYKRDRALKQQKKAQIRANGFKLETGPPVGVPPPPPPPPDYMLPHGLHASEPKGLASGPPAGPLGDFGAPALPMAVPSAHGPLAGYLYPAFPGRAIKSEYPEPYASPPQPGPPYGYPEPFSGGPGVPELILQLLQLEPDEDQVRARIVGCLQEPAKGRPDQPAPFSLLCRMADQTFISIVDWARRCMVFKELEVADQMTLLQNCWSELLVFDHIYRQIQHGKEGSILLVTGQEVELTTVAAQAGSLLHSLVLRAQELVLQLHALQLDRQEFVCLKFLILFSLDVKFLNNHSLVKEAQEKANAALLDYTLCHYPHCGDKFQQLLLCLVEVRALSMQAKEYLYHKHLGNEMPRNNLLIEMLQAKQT

interaction with AR [1]: only weak interactions were detected
interaction with ER [2]: only weak interactions were detected
interaction with GR [4]: only weak interactions were detected
interaction with PR [5]: interacts strongly
interaction with RAR [6]: only weak interactions were detected
interaction with RXR [7]: interacts strongly
interaction with TR [8]: interacts strongly
Substance: PNRC: proline-rich nuclear receptor co-regulatory protein, 327 aa, SEQ ID NO:8, nuclear receptor coactivator
interaction with ERRα1 [3]: interacted with orphan receptors SF1 and ERRα1 in the absence of any added activator or ligand
interaction with SF1 [9]: interacted with orphan receptors SF1 and ERRα1 in the absence of any added activator or ligand
